Source: the NIST ThermoML archive (doi:10.1021/je7007654)

Experiment: xn = mol fraction of the nth substance listed
Conditions: 101 kPa, Liquid; for viscosity: Capillary tube (Ostwald / Ubbelohde) method; for speed of sound: Sing-around technique in a fixed-path interferometer

CC(C)CCCC(C)CCCC(C)CCCCC(C)CCCC(C)CCCC(C)C (stereo not given) [2,6,10,15,19,23-hexamethyltetracosane] + CCCCO
Conditions | speed of sound, 298.15 K [m/s] | speed of sound, 303.15 K [m/s] | speed of sound, 308.15 K [m/s] | viscosity, 298.15 K [mPa·s] | viscosity, 303.15 K [mPa·s] | viscosity, 308.15 K [mPa·s]
x2 = 0 | 1381.9 | 1364.1 | 1346.5 | 28.26 | 22.09 | 17.77
x2 = 0.0451 | 1379.5 | 1361.7 | 1343 | 26.66 | 20.88 | 16.81
x2 = 0.1077 | 1376.1 | 1358.3 | 1340.2 | 24.69 | 19.42 | 15.62
x2 = 0.1346 | 1374.8 | 1356.5 | 1338.9 | 23.92 | 18.86 | 15.16
x2 = 0.1888 | 1371.7 | 1353.8 | 1335.9 | 22.48 | 17.78 | 14.29
x2 = 0.2231 | 1369.7 | 1351.8 | 1333.9 | 21.62 | 17.14 | 13.79
x2 = 0.3059 | 1365.1 | 1347.1 | 1329.3 | 19.67 | 15.64 | 12.62
x2 = 0.4052 | 1358.8 | 1340.8 | 1322.8 | 17.39 | 13.9 | 11.38
x2 = 0.5039 | 1350.9 | 1332.6 | 1314.8 | 15.11 | 12.14 | 9.903
x2 = 0.6118 | 1340.5 | 1322.5 | 1304.6 | 12.47 | 10.12 | 8.307
x2 = 0.7056 | 1328.8 | 1310.9 | 1293.1 | 10.06 | 8.276 | 6.824
x2 = 0.7998 | 1312.5 | 1294.8 | 1277.1 | 7.573 | 6.348 | 5.267
x2 = 0.8546 | 1299.5 | 1281.8 | 1264.2 | 6.128 | 5.2 | 4.344
x2 = 0.9035 | 1284.3 | 1266.8 | 1249.1 | 4.873 | 4.186 | 3.527
x2 = 0.9669 | 1258.5 | 1241.4 | 1224.4 | 3.325 | 2.912 | 2.497

mass density [kg/m3], Vibrating tube method
Conditions | 298.15 K | 303.15 K | 308.15 K
x2 = 0 | 805.122 | 801.912 | 798.709
x2 = 0.0451 | 804.881 | 801.658 | 798.397
x2 = 0.1077 | 804.649 | 801.402 | 798.084
x2 = 0.1346 | 804.573 | 801.318 | 797.991
x2 = 0.1888 | 804.447 | 801.16 | 797.826
x2 = 0.2231 | 804.377 | 801.07 | 797.731
x2 = 0.3059 | 804.273 | 800.898 | 797.543
x2 = 0.4052 | 804.097 | 800.714 | 797.32
x2 = 0.5039 | 803.949 | 800.528 | 797.098
x2 = 0.6118 | 803.817 | 800.347 | 796.857
x2 = 0.7056 | 803.732 | 800.179 | 796.621
x2 = 0.7998 | 803.836 | 800.194 | 796.558
x2 = 0.8546 | 803.989 | 800.335 | 796.66
x2 = 0.9035 | 804.336 | 800.708 | 796.979
x2 = 0.9669 | 805.126 | 801.896 | 798.06

CCCCCCCCCCCCCCCC [hexadecane] + CCCCO
Conditions | mass density, 298.15 K [kg/m3] | mass density, 303.15 K [kg/m3] | mass density, 308.15 K [kg/m3] | speed of sound, 298.15 K [m/s] | speed of sound, 303.15 K [m/s] | speed of sound, 308.15 K [m/s] | viscosity, 298.15 K [mPa·s] | viscosity, 303.15 K [mPa·s] | viscosity, 308.15 K [mPa·s]
x2 = 0 | 770.456 | 766.981 | 763.52 | 1338.6 | 1320 | 1301.7 | 3.041 | 2.706 | 2.409
x2 = 0.0899 | 770.953 | 767.402 | 763.863 | 1332.4 | 1313.4 | 1294.9 | 2.957 | 2.6 | 2.302
x2 = 0.1048 | 771.053 | 767.499 | 763.961 | 1331.2 | 1312.2 | 1293.8 | 2.937 | 2.582 | 2.287
x2 = 0.1516 | 771.517 | 767.916 | 764.36 | 1328.2 | 1309.2 | 1290.3 | 2.899 | 2.546 | 2.254
x2 = 0.2017 | 772.074 | 768.482 | 764.874 | 1324.9 | 1305.8 | 1287.3 | 2.846 | 2.515 | 2.223
x2 = 0.2494 | 772.705 | 769.093 | 765.462 | 1321.9 | 1302.9 | 1284.4 | 2.811 | 2.478 | 2.189
x2 = 0.3382 | 774.083 | 770.439 | 766.796 | 1315.8 | 1296.9 | 1278.2 | 2.753 | 2.432 | 2.146
x2 = 0.4147 | 775.524 | 771.883 | 768.201 | 1310.6 | 1291.6 | 1273.1 | 2.704 | 2.394 | 2.112
x2 = 0.5057 | 777.651 | 773.952 | 770.24 | 1303.9 | 1285.5 | 1266.9 | 2.665 | 2.344 | 2.068
x2 = 0.5845 | 779.95 | 776.223 | 772.472 | 1297.6 | 1279.2 | 1260.9 | 2.635 | 2.306 | 2.029
x2 = 0.698 | 784.249 | 780.452 | 776.653 | 1287.4 | 1269.2 | 1251.1 | 2.594 | 2.256 | 1.99
x2 = 0.7945 | 789.246 | 785.434 | 781.597 | 1276.8 | 1258.5 | 1240.6 | 2.568 | 2.223 | 1.96
x2 = 0.8497 | 792.847 | 789.093 | 785.172 | 1269.5 | 1251.4 | 1233.7 | 2.558 | 2.218 | 1.953
x2 = 0.8963 | 796.346 | 792.717 | 788.76 | 1262.7 | 1244.8 | 1227.4 | 2.551 | 2.219 | 1.948
x2 = 0.953 | 801.232 | 797.973 | 794.054 | 1252.3 | 1235.8 | 1218.5 | 2.556 | 2.228 | 1.953
